Reference: ChEMBL document CHEMBL1132809, “Synthesis and evaluation of 4-deacetoxyagosterol A as an MDR-modulator” (2000)

Assays:
KB-C2 [1] = assay: The compound was evaluated to Inhibit the growth of KB-C2 cells at 1 ug/mL n the presence of colchicine (0.1 ug/ML)
KB-CV60 [2] = assay: The compound was evaluated to Inhibit the growth of KB CV-60 cells at 10 ug/mL in the presence of vincristine (0.1 ug/ML)
KB-CV60 [3] = assay: The compound was evaluated to Inhibit the growth of KB CV-60 cells at 3 ug/mL in the presence of vincristine (0.1 ug/ML)
KB 3-1 [4] = assay: Cytotoxicity was evaluated against KB-3-1 cells at 10 ug/mL; assay type: functional; settings: Homo sapiens
KB 3-1 [5] = assay: Cytotoxicity was evaluated against KB-3-1 cells at 3 ug/mL; assay type: functional; settings: Homo sapiens
KB-CV60 [6] = assay: The compound was evaluated to Inhibit the growth of KB CV-60 cells at 1 ug/mL in the presence of vincristine (0.1 ug/ML)
KB-C2 [7] = assay: The compound was evaluated to Inhibit the growth of KB-C2 cells at 3 ug/mL n the presence of colchicine (0.1 ug/ML)
KB-C2 [8] = assay: The compound was evaluated to Inhibit the growth of KB-C2 cells at 10 ug/mL in the presence of colchicine (0.1 ug/ML)
KB 3-1 [9] = assay: Cytotoxicity was evaluated against KB-C2 cells at 0.1 ug/mL; No cytotoxicity; assay type: functional, cell-based; settings: Homo sapiens
KB 3-1 [10] = assay: Cytotoxicity was evaluated against KB CV-60 cells at 0.1 ug/mL; No cytotoxicity; assay type: functional, cell-based; settings: Homo sapiens

Compound `CC(=O)O[C@H]1CC[C@@]2(C)[C@H](C1)[C@@H](OC(C)=O)C=C1[C@@H]2[C@H](O)C[C@]2(C)[C@@H]([C@H](C)CCCC(C)C)CC[C@@H]12` has an Inhibition (KB-C2 [1]) of 37%, an Inhibition (KB-CV60 [2]) of 42% and an Inhibition (KB-CV60 [3]) of 25%. For the same compound, the inhibition at 10 µg/mL (KB 3-1 [4]) was 39%, the inhibition at 3 µg/mL (KB 3-1 [5]) was 5% and the Inhibition (KB-CV60 [6]) was 15%. The Inhibition (KB-C2 [7]) was 69% and the Inhibition (KB-C2 [8]) was 88%.

In the case of `COc1cc2c(c(OC)c1OC)-c1ccc(OC)c(=O)cc1[C@@H](NC(C)=O)CC2`, the Cytotoxicity (KB 3-1 [9]) is reported as “No cytotoxicity” and the Cytotoxicity (KB 3-1 [10]) is reported as “No cytotoxicity”.

In the case of `CC[C@]1(O)C[C@H]2CN(CCc3c([nH]c4ccccc34)[C@@](C(=O)OC)(c3cc4c(cc3OC)N(C=O)[C@H]3[C@@](O)(C(=O)OC)[C@H](OC(C)=O)[C@]5(CC)C=CCN6CC[C@]43[C@@H]65)C2)C1`, the Cytotoxicity (KB 3-1 [9]) is reported as “No cytotoxicity” and the Cytotoxicity (KB 3-1 [10]) is reported as “No cytotoxicity”.

Work on `CC(=O)O[C@@H]1[C@@H]2[C@@H](OC(C)=O)C=C3[C@H]([C@H](O)C[C@]4(C)[C@@H]([C@H](C)[C@H](O)CCC(C)C)CC[C@@H]34)[C@@]2(C)CC[C@@H]1OC(C)=O` [AGOSTEROL A] yielded an Inhibition (KB-C2 [1]) of 75%, an Inhibition (KB-CV60 [2]) of 76% and an Inhibition (KB-CV60 [3]) of 73%. The inhibition at 10 µg/mL (KB 3-1 [4]) was 13%, the Inhibition (KB-CV60 [6]) was 66% and the Inhibition (KB-C2 [7]) was 82%. It also gave an Inhibition (KB-C2 [8]) of 84%.

With `CC(=O)O[C@H]1CC[C@@]2(C)[C@H](C1)[C@@H](OC(C)=O)C=C1[C@@H]2[C@H](O)C[C@]2(C)[C@@H]([C@H](C)[C@H](O)CCC(C)C)CC[C@@H]12` the Inhibition (KB-C2 [1]) was 44%, the Inhibition (KB-CV60 [2]) was 69% and the Inhibition (KB-CV60 [3]) was 64%. For the same compound, the inhibition at 10 µg/mL (KB 3-1 [4]) was 19%, the inhibition at 3 µg/mL (KB 3-1 [5]) was 13% and the Inhibition (KB-CV60 [6]) was 59%. The Inhibition (KB-C2 [7]) was 76% and the Inhibition (KB-C2 [8]) was 87%.
